ChEMBL document CHEMBL1131766, “On the analogy between forskolin and D-glucose” (Bioorg Med Chem Lett, 1999)

Key:
[1] = species on record: Rattus norvegicus; assay: Compound was tested for inhibition of glucose transport in rat adipocyte; assay type: functional, organism-based
[2] = species on record: Rattus norvegicus; assay: Compound was tested for inhibition of glucose transport in adipocytes plasma membrane vesicles using [H]-forskolin as radioligand; assay type: functional
[3] = species on record: Homo sapiens; assay: Compound was testd for inhibition of glucose transport human erythrocytes using [H]-forskolin as radioligand; assay type: functional, organism-based
[4] = species on record: Homo sapiens; assay: Compound was testd for inhibition of glucose transport human platelets using [H]-forskolin as radioligand; assay type: functional, organism-based

Row | Structure (SMILES) | Ki [1] [µM] | EC50 [2] [µM] | EC50 [3] [µM] | EC50 [4] [µM]
1 | CC(=O)O[C@@H]1[C@@H](O)[C@H](O)[C@@H](CO)O[C@@H]1O | 8500 | – | – | –
2 | C=C[C@@]1(C)CC(=O)[C@]2(O)[C@@]3(C)[C@@H](O)CCC(C)(C)[C@@H]3[C@H](O)[C@H](O)[C@@]2(C)O1 | – | 7.1 | – | –
3 | C=C[C@@]1(C)CC(=O)[C@]2(O)[C@@]3(C)[C@@H](O)CCC(C)(C)[C@@H]3[C@H](O)[C@H](OC(C)=O)[C@@]2(C)O1 [COLFORSIN] | – | 0.24 | 0.24 | 0.24
